Like-named read-outs stand apart in the source and are kept apart here.
Tested on: IL-10 production by OvA-stimulated splenocytes
Assay: OvA-stimulated production of IL-10 by splenocytes of OvA-immunized mice
Details: for activity at 0.0001 mg/kg / activity at 0.001 mg/kg / activity at 0.01 mg/kg: Mus musculus, Splenocyte, po
[1] = OvA/Alum, 0.1 μg/kg i/p, OvA 10 μg/ml
[2] = OvA/Alum, 0.1 μg/kg i/p, OvA 25 μg/ml
[3] = OvA/Alum, 0.1 μg/kg i/p, OvA 50 μg/ml
[4] = OvA/Alum, 0.1 μg/kg i/p, OvA 100 μg/ml
[5] = OvA/Alum, 1.0 μg/kg i/p, OvA 10 μg/ml
[6] = OvA/Alum, 1.0 μg/kg i/p, OvA 25 μg/ml
[7] = OvA/Alum, 1.0 μg/kg i/p, OvA 50 μg/ml
[8] = OvA/Alum, 1.0 μg/kg i/p, OvA 100 μg/ml
[9] = OvA/FA, 0.1 μg/kg i/p, OvA 10 μg/ml
[10] = OvA/FA, 0.1 μg/kg i/p, OvA 25 μg/ml

Procedure: The OvA was administered subcutaneously to the crest in a volume of 200 μl. Mice were immunized on day 1 with OvA in complete Freund's adjuvant (CFA; Sigma) and on day 15 with the antigen in incomplete Freund's adjuvant (IFA; Sigma). The immune response was analyzed on day 29. Mice were also immunized with 10 μg/mouse of OvA using Alum as an adjuvant.
Thymuses and spleens from mice of each treatment group were pooled, and then minced with scissors. The minced tissues were suspended in sterile PBS to form cell suspensions, filtered through a double gauze layer and centrifuged. Cells were washed twice with PBS, re-suspended in RPMI-1640 (Sigma) with 2.0 mM of L-glutamine, 50 μM of mercaptoethanol, and 10 μg/ml of gentamycin (complete medium); and cell counts were made. (The splenocyte suspension was washed with a 0.86% solution of NH4Cl to pre-lyse erthrocytes.)
Assessment of Mitogen- and Antigen-Induced Production of Cytokines: Thymic cells (1×10^6/well) in complete medium with 2% FCS were stimulated with ConA (0, 1, and 2 μg/ml). Splenocytes (1×10^6/well) in complete medium with 5% FCS were stimulated with ConA (0, 1, and 5 μg/ml) and with OvA (0-100 μg/ml). […] Supernatants from OvA-stimulated cultures were collected after 72 hours. Supernatants from both cultures were frozen, and kept at 20° C. Concentrations of IL-2, IL-4, IL-10, IL-12R40 and IFNγ in the supernatants were determined by solid-phase EIA with EIA Expansion Kits, available from BD Biosciences (formerly Pharmingen), in accordance with the manufacturer's instructions.

N[C@H](CCC(=O)N[C@@H](Cc1c[nH]c2ccccc12)C(=O)O)C(=O)O [SCV-07, γ-D-glutamyl-L-tryptophan]
activity at 0.0001 mg/kg (read-out: Production of IL-10 by splenocytes, % (% of control), OvA/Alum, 0.1 μg/kg per os, OvA 0 μg/ml): 100% | activity at 0.0001 mg/kg (read-out: Production of IL-10 by splenocytes, % (% of control), OvA/Alum, 0.1 μg/kg per os, OvA 10 μg/ml): 118% | activity at 0.0001 mg/kg (read-out: Production of IL-10 by splenocytes, % (% of control), OvA/Alum, 0.1 μg/kg per os, OvA 25 μg/ml): 105% | activity at 0.0001 mg/kg (read-out: Production of IL-10 by splenocytes, % (% of control), OvA/Alum, 0.1 μg/kg per os, OvA 50 μg/ml): 132% | activity at 0.0001 mg/kg (read-out: Production of IL-10 by splenocytes, % (% of control), OvA/Alum, 0.1 μg/kg per os, OvA 100 μg/ml): 129% | activity at 0.001 mg/kg (read-out: Production of IL-10 by splenocytes, % (% of control), OvA/Alum, 1.0 μg/kg per os, OvA 0 μg/ml): 100% | activity at 0.001 mg/kg (read-out: Production of IL-10 by splenocytes, % (% of control), OvA/Alum, 1.0 μg/kg per os, OvA 10 μg/ml): 128% | activity at 0.001 mg/kg (read-out: Production of IL-10 by splenocytes, % (% of control), OvA/Alum, 1.0 μg/kg per os, OvA 25 μg/ml): 112% | activity at 0.001 mg/kg (read-out: Production of IL-10 by splenocytes, % (% of control), OvA/Alum, 1.0 μg/kg per os, OvA 50 μg/ml): 110% | activity at 0.001 mg/kg (read-out: Production of IL-10 by splenocytes, % (% of control), OvA/Alum, 1.0 μg/kg per os, OvA 100 μg/ml): 109% | activity at 0.01 mg/kg (read-out: Production of IL-10 by splenocytes, % (% of control), OvA/Alum, 10.0 μg/kg per os, OvA 0 μg/ml): 100% | activity at 0.01 mg/kg (read-out: Production of IL-10 by splenocytes, % (% of control), OvA/Alum, 10.0 μg/kg per os, OvA 10 μg/ml): 138% | activity at 0.01 mg/kg (read-out: Production of IL-10 by splenocytes, % (% of control), OvA/Alum, 10.0 μg/kg per os, OvA 25 μg/ml): 156% | activity at 0.01 mg/kg (read-out: Production of IL-10 by splenocytes, % (% of control), OvA/Alum, 10.0 μg/kg per os, OvA 50 μg/ml): 197% | activity at 0.01 mg/kg (read-out: Production of IL-10 by splenocytes, % (% of control), OvA/Alum, 10.0 μg/kg per os, OvA 100 μg/ml): 218% | activity at 0.0001 mg/kg (read-out: Production of IL-10 by splenocytes, % (% of control), OvA/FA, 0.1 μg/kg per os, OvA 0 μg/ml): 100% | activity at 0.0001 mg/kg (read-out: Production of IL-10 by splenocytes, % (% of control), OvA/FA, 0.1 μg/kg per os, OvA 10 μg/ml): 136% | activity at 0.0001 mg/kg (read-out: Production of IL-10 by splenocytes, % (% of control), OvA/FA, 0.1 μg/kg per os, OvA 25 μg/ml): 210% | activity at 0.0001 mg/kg (read-out: Production of IL-10 by splenocytes, % (% of control), OvA/FA, 0.1 μg/kg per os, OvA 50 μg/ml): 248% | activity at 0.0001 mg/kg (read-out: Production of IL-10 by splenocytes, % (% of control), OvA/FA, 0.1 μg/kg per os, OvA 100 μg/ml): 270% | activity at 0.001 mg/kg (read-out: Production of IL-10 by splenocytes, % (% of control), OvA/FA, 1.0 μg/kg per os, OvA 0 μg/ml): 100% | activity at 0.001 mg/kg (read-out: Production of IL-10 by splenocytes, % (% of control), OvA/FA, 1.0 μg/kg per os, OvA 10 μg/ml): 234% | activity at 0.001 mg/kg (read-out: Production of IL-10 by splenocytes, % (% of control), OvA/FA, 1.0 μg/kg per os, OvA 25 μg/ml): 241% | activity at 0.001 mg/kg (read-out: Production of IL-10 by splenocytes, % (% of control), OvA/FA, 1.0 μg/kg per os, OvA 50 μg/ml): 275% | activity at 0.001 mg/kg (read-out: Production of IL-10 by splenocytes, % (% of control), OvA/FA, 1.0 μg/kg per os, OvA 100 μg/ml): 317% | activity at 0.01 mg/kg (read-out: Production of IL-10 by splenocytes, % (% of control), OvA/FA, 10.0 μg/kg per os, OvA 0 μg/ml): 100% | activity at 0.01 mg/kg (read-out: Production of IL-10 by splenocytes, % (% of control), OvA/FA, 10.0 μg/kg per os, OvA 10 μg/ml): 133% | activity at 0.01 mg/kg (read-out: Production of IL-10 by splenocytes, % (% of control), OvA/FA, 10.0 μg/kg per os, OvA 25 μg/ml): 174% | activity at 0.01 mg/kg (read-out: Production of IL-10 by splenocytes, % (% of control), OvA/FA, 10.0 μg/kg per os, OvA 50 μg/ml): 216% | activity at 0.01 mg/kg (read-out: Production of IL-10 by splenocytes, % (% of control), OvA/FA, 10.0 μg/kg per os, OvA 100 μg/ml): 250% | Production of IL-10 by splenocytes (OvA/Alum, 0.1 μg/kg i/p, OvA 0 μg/ml): 2177.8 pg/mL | Production of IL-10 by splenocytes [1]: 1762.5 pg/mL | Production of IL-10 by splenocytes, % (% of control) [1]: 80.9% | Production of IL-10 by splenocytes [2]: 1946.1 pg/mL | Production of IL-10 by splenocytes, % (% of control) [2]: 89.4% | Production of IL-10 by splenocytes [3]: 1851.3 pg/mL | Production of IL-10 by splenocytes, % (% of control) [3]: 85.0% | Production of IL-10 by splenocytes [4]: 2189.5 pg/mL | Production of IL-10 by splenocytes, % (% of control) [4]: 100.5% | Production of IL-10 by splenocytes (OvA/Alum, 0.1 μg/kg per os, OvA 0 μg/ml): 1351.1 pg/mL | Production of IL-10 by splenocytes (OvA/Alum, 0.1 μg/kg per os, OvA 10 μg/ml): 1587.9 pg/mL | Production of IL-10 by splenocytes (OvA/Alum, 0.1 μg/kg per os, OvA 25 μg/ml): 1419.5 pg/mL | Production of IL-10 by splenocytes (OvA/Alum, 0.1 μg/kg per os, OvA 50 μg/ml): 1783.6 pg/mL | Production of IL-10 by splenocytes (OvA/Alum, 0.1 μg/kg per os, OvA 100 μg/ml): 1741.5 pg/mL | Production of IL-10 by splenocytes (OvA/Alum, 1.0 μg/kg i/p, OvA 0 μg/ml): 2035.7 pg/mL | Production of IL-10 by splenocytes [5]: 1758.9 pg/mL | Production of IL-10 by splenocytes, % (% of control) [5]: 86.4% | Production of IL-10 by splenocytes [6]: 1829.8 pg/mL | Production of IL-10 by splenocytes, % (% of control) [6]: 89.9% | Production of IL-10 by splenocytes [7]: 1584.7 pg/mL | Production of IL-10 by splenocytes, % (% of control) [7]: 77.8% | Production of IL-10 by splenocytes [8]: 1840.7 pg/mL | Production of IL-10 by splenocytes, % (% of control) [8]: 90.4% | Production of IL-10 by splenocytes (OvA/Alum, 1.0 μg/kg per os, OvA 0 μg/ml): 1741.5 pg/mL | Production of IL-10 by splenocytes (OvA/Alum, 1.0 μg/kg per os, OvA 10 μg/ml): 2220.9 pg/mL | Production of IL-10 by splenocytes (OvA/Alum, 1.0 μg/kg per os, OvA 25 μg/ml): 1957.2 pg/mL | Production of IL-10 by splenocytes (OvA/Alum, 1.0 μg/kg per os, OvA 50 μg/ml): 1920.4 pg/mL | Production of IL-10 by splenocytes (OvA/Alum, 1.0 μg/kg per os, OvA 100 μg/ml): 1898.4 pg/mL | Production of IL-10 by splenocytes (OvA/Alum, 10.0 μg/kg per os, OvA 0 μg/ml): 816.4 pg/mL | Production of IL-10 by splenocytes (OvA/Alum, 10.0 μg/kg per os, OvA 10 μg/ml): 1127.5 pg/mL | Production of IL-10 by splenocytes (OvA/Alum, 10.0 μg/kg per os, OvA 25 μg/ml): 1272.5 pg/mL | Production of IL-10 by splenocytes (OvA/Alum, 10.0 μg/kg per os, OvA 50 μg/ml): 1608.4 pg/mL | Production of IL-10 by splenocytes (OvA/Alum, 10.0 μg/kg per os, OvA 100 μg/ml): 1780.1 pg/mL | Production of IL-10 by splenocytes (OvA/FA, 0.1 μg/kg i/p, OvA 0 μg/ml): 785.1 pg/mL | Production of IL-10 by splenocytes [9]: 989.4 pg/mL | Production of IL-10 by splenocytes, % (% of control) [9]: 126.0% | Production of IL-10 by splenocytes [10]: 1234.3 pg/mL | Production of IL-10 by splenocytes, % (% of control) [10]: 157.2% | Production of IL-10 by splenocytes (OvA/FA, 0.1 μg/kg i/p, OvA 50 μg/ml): 1194.2 pg/mL

Reference: patent publication US20090074815A1, “Immunomodulator Compounds as Vaccine Enhancers” (SCICLONE PHARMACEUTICALS, INC., priority 2005, published 2009)
